The values below come from patent US10738002B2, “Halogenated benzotropolones as ATG4B inhibitors” (Universiteit Antwerpen, priority 2016, dated 2020).

The subject of one data set is Jurkat T-cells. Briefly: CYTO-ID-based phenotypical screening for autophagy inhibition. Type of data set: cell-based. As to conditions: Homo sapiens, tested at 10 mM concentration + 10 μM everolimus, everolimus-treated = 1 (normalized), control 0.37, read-out: CYTOID assay (autophagy relative to the everolimus-treated group). How it is done:
Final compounds were screened for autophagy/Atg4B inhibition in 3 different assays: a gel-based screening for Atg4B inhibition, a CYTO-ID-based phenotypical screening for autophagy inhibition and a luciferase reporter assay for assessment of intracellular Atg4B inhibition. Initially, all compounds were evaluated using the SDS-PAGE-based screening assay. Each test compound was incubated with [LC3B-GST], a fusion protein of LC3B and glutathione-S-transferase, and Atg4B in Tris-HCl buffer for a fixed time period. Afterwards, residual fusion protein and cleavage products were separated by gel electrophoresis and quantified using optical densitometry. Based on the % of uncleaved substrate, compound activity was expressed as % enzyme inhibition at 500 μM compound concentration. A set of compounds was then subjected to a CYTO ID-based assay (Stankov et al., 2014). This assay is based on selective labelling of autophagic vacuoles in Jurkat T-cells. Quantification of the stained autophagic compartments can then be used for assessment of autophagy modulation. Autophagy induction was obtained by addition of 10 μM everolimus in EtOH in the presence of 10 μM test compound and autophagy inhibition was monitored as a decline in autophagic vacuoles and the corresponding fluorescent signal. […]

The next data set has as its target T1, HsAtg4B (Homo sapiens, UniProt Q9Y4P1).
T1 sequence (Q9Y4P1 1-393): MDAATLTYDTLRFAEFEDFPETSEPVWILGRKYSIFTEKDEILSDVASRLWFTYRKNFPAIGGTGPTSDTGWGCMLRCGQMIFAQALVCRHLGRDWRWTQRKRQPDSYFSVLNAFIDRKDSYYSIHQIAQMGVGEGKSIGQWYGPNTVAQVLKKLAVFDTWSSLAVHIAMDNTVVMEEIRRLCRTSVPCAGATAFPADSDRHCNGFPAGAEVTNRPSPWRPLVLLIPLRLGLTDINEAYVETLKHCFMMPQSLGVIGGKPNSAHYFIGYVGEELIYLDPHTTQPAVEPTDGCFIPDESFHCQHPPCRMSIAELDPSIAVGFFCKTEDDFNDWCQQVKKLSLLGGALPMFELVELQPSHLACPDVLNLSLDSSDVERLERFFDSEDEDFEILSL
Briefly: SDS-PAGE-based screening assay for Atg4B inhibition (cleavage of LC3B-GST). The following applies: 500 μM compound concentration; LC3B-GST substrate, 6 minutes; read-out: SDS-PAGE Enzyme inhibition (%). Type of data set: biochemical.

Data set [1] in a line: Plasma stability in mouse plasma. It is filed as in vitro ADME. The following applies: for recovery at 1 h, 50 µM: Non Swiss Albino, 37° C., read-out: Plasma stability (mouse) recovery of parent compound after lh (%); for plasma stability compared to the non-halogenated analogues: comparison in words. How it is done: A 10 mM compound solution was prepared in DMSO (Acros). A 5 μL aliquot was added to 995 μL of mouse plasma (Non Swiss Albino Mouse Plasma, sodium citrate, DivBioScience, IMS-N) to obtain a final solution of 50 μM. The mixture was gently shaken for 6 hours at 37° C. Aliquots of 100 μL were taken at various time points (0, 30, 60, 120, 180, 360 minutes) and diluted with 400 μL of cold methanol (Sigma-Aldrich) (stored at 4° C.). The suspension was centrifuged at 14000 rpm for 5 minutes. Afterwards, 50 μL of the supernatant was diluted with 950 μL of methanol and analyzed with LC-MS/MS (Waters Acquity H-class UPLC system with ion trap mass spectrometer, Bruker Daltonics Esquire 3000 plus, and Agilent 1100 Series LC system). The samples were analyzed in triplicate. A standard curve was plotted using compound concentrations of 3.12-100 μM in mouse plasma.

The nature of data set [2]: Metabolic stability in mouse microsomes. Type of data set: in vitro ADME. The following applies: for recovery at 30 min, 10 µM: mouse liver microsomes, read-out: Microsomal stability (mouse) recovery of parent compound after 30 min (%); for microsomal stability, comparison in words: mouse microsomes. As to the method:
A 5 mM compound solution was prepared in DMSO. A mixture of 713 μL milliQ water (Milli-Q Direct 8, Merck Millipore), 200 μL 0.5 M phosphate buffer (BD Diagnostic Systems, 257385), 50 μL NADPH regenerating system solution A (BD Biosciences), 10 μL NADPH regenerating system solution B (BD Biosciences) and 2 μL compound solution was prepared and heated for 5 min at 37° C. 25 μL of liver microsomes (Corning B.V. Life Sciences) was added to the mixture and 20 μL samples were withdrawn at 0, 15, 30, 60, 120, 240 and 360 minutes. 80 μL (4×20 μL) of cold acetonitrile (Sigma-Aldrich) was added to the samples on ice for 10 minutes. Afterwards, the mixtures were centrifuged at 13000 rpm for 5 minutes at 4° C. A volume of 75 μL of an acetonitrile/water (10/90) mixture was added to 25 μL supernatant and the obtained samples were analyzed by LC-MS/MS in triplicate.
In general terms: Liver microsomes are a subcellular fraction often used to study metabolism.

Data set [3] concerns autophagy. The following applies: cited from earlier work.
The subject of data set [4] is autophagy. Briefly: Cellular screening assay for autophagy inhibitors (in our hands). Type of data set: cell-based.

Where two headings read alike, the source gives them in different places.

Method for HsAtg4B: For each assay, fresh aliquots of enzyme and substrate were thawn, and fresh buffer was used. All substrate and enzyme dilutions were made in LoBind Eppendorf® tubes. Buffer used in the following methods for making appropriate dilutions consisted of 50 mM Tris-HCl pH 7.4, 150 mM NaCl, 2 mM DTT and 0.1% TWEEN 20, freshly prepared at the day of the experiment. 10 μL of Laemmli Sample Buffer was added to each sample to stop enzymatic cleavage of LC3B-GST and the samples were boiled for 4 minutes. The samples were loaded onto a NuPAGE® Novex 12 Bis-Tris 1.0 mm 15 well gel after termination of the enzymatic reaction. A Thermo-Scientific® PageRuler Prestained Protein Ladder was used as a reference for molecular weights of the separated proteins. […] Lane densities were quantified using Totallab Quant® software.

As to `Cn1cnc(N)c2ncnc1-2` [Compound 3-MA, 3-Methyladenine, reference compound], the activity at 10000 µM in the data set on Jurkat T-cells is 57%.
The term inhibition denotes the drop in the measured response relative to a control, in per cent. Regarding `NC(=O)c1cc(O)c(=O)c2c(O)c(O)c(F)cc2c1` [Compound 31, 2-fluoro-3,4,6-trihydroxy-5-oxo-5H-benzo[7]annulene-8-carboxamide], the inhibition at 500 µM on HsAtg4B was determined as 39.9%.
For `O=C(O)c1cc(O)c(=O)c2c(O)c(O)c(Br)cc2c1` [Compound 36, 2-bromo-3,4,6-trihydroxy-5-oxo-5H-benzo[7]annulene-8-carboxylic acid], in data set [1], the recovery at 1 h, 50 µM is 19 ± 1% and the “plasma stability compared to the non-halogenated analogues” value is “substantial increase”. Further, the recovery at 30 min, 10 µM in data set [2] (37° C.) was 100%. In addition, in data set [2], the “microsomal stability, comparison in words” value is given as “substantial increase”.
On to `CCCCOC(=O)c1cc(O)c(=O)c2c(O)c(O)c(Br)cc2c1` [Compound 40, Butyl 2-bromo-3,4,6-trihydroxy-5-oxo-5H-benzo[7]annulene-8-carboxylate], for which, in data set [1], the recovery at 1 h, 50 µM turned out to be 87 ± 4% and the “plasma stability compared to the non-halogenated analogues” value was “substantial increase”. In data set [2] (37° C.), the recovery at 30 min, 10 µM came to 23 ± 7%. The “microsomal stability, comparison in words” value in data set [2] was “substantial increase”.
With `O=C(O)c1cc(O)c(=O)c2c(O)c(O)ccc2c1` [Shu et al.], the “autophagy inhibition reported by Shu et al.” value in the data set on autophagy [3] is “weak autophagy inhibitor”. In the data set with autophagy [3] (in cellulo), the “in cellulo autophagy inhibition (reported)” value is given as “no in cellulo autophagy inhibition”. In data set [1], the recovery at 1 h, 50 µM came out at 0%. In the data set on autophagy [4], the “activity in a cellular screening assay for autophagy inhibitors” value is reported as “did not show activity”. The recovery at 30 min, 10 µM in data set [2] (value obtained using linear interpolation) was 100%.
